Measured values as given in patent US6558699B2, “High drug load immediate and modified release oral dosage formulations and processes for their manufacture” (SmithKline Beecham Corporation, priority 1997, dated 2003).

How the values were obtained:
[1] = Drug release from enteric-coated modified release tablets and drug solubility at the initiation pH; conditions: pH >4.0 (PVAP), >5.0 (HPMCP), 5.5 (Eudragit)
Source text: Tablets of Formulas 1-4 may be optionally provided with an aqueous film coating. Generally, these tablets are coated first with a polymer solution to form a clear film, and then coated with an aqueous polymer solution/suspension to form an opaque, white or colored film. […] In contrast, tablets of Formulas 5-7 are first coated with an aqueous polymer solution to form a clear film (often called seal coat) and then with an aqueous solution/suspension of an enteric polymer such as Eudragit L30D, hydroxypropyl methycellulose acetate phthalate (HPMCP), cellulose acetate phthalate (CAP) or polyvinyl acetate phthalate (PVAP). The weight gains following seal coat and enteric coat are about 3-6% and 4-12% (most preferably 3-4% and 4-6%) respectively. The modified release tablets thus produced release <20% drug in the stomach following the oral administration and rapidly release the drug at higher pHs, depending on the polymer used (for e.g., at a pH >4.0 for PVAP, >5.0 for HPMCP and 5.5 for Eudragit), even though the drug solubility at these initiation pHs is negligible. The water imbibed into the tablets dissolves arginine creating a high pH environment in which Eprosartan dissolves. This high pH also dissolves the film coating, releasing the drug substance to the environment.

[2] = Human clinical studies (tolerability and pharmacokinetics); assay type: in vivo; conditions: for safety and tolerability: human clinical studies, doses up to 800 mg per day
[3] = Hydrate formation during wet granulation (TGA, DSC, XRD); assay type: physicochemical; conditions: wet granulation with water
Source text: (§1) FIGS. 1(A), 2(A) and 3(A) show, respectively, the thermogravimetric analysis (TGA), the differential scanning calorimetric (DSC) thermogram and the powder X-ray diffraction (XRD) pattern of the free base of anhydrous (E)-α-[2-n-butyl-1-[(4-carboxyphenyl)methyl]-1H-imidazol-5-yl]methylene-2-thiophenepropionic acid.
as §1, with “1B-D, 2B-D” for “1(A), 2(A)”, “3B-D” for “3(A)”, “patterns for the granulations” for “pattern”, “acid with different binders and binder-diluent combinations.” for “acid.”
FIGS. 1B, 2B and 3B show, respectively, the thermogravimetric analysis (TGA), the differential scanning calorimetric (DSC) thermogram and the powder X-ray diffraction (XRD) patterns for the granulations of (E)-α-[2-n-butyl-1-[(4-carboxyphenyl)methyl]-1H-imidazol-5-yl]methylene-2-thiophenepropionic acid with Starch 1551 (96/4 eprosartan free base/Starch 1551). […]

Compound	drug solubility at the initiation pHs [1]	safety and tolerability [2]	hydrate formation during wet granulation [3]	bioavailability ([2]; human, in vivo, oral, read-out: mean absolute bioavailability) [%]
CCCCc1ncc(/C=C(\Cc2cccs2)C(=O)O)n1Cc1ccc(C(=O)O)cc1 [Eprosartan, (E)-α-[2-n-Butyl-1-[(4-carboxyphenyl)methyl]-1H-imidazol-5-yl]methylene-2-thiophenepropionic acid]	negligible	safe and well tolerated	does not form a hydrate	–
CCCCc1ncc(/C=C(\Cc2cccs2)C(=O)O)n1Cc1ccc(C(=O)O)cc1.CS(=O)(=O)O [(E)-α-[2-n-Butyl-1-[(4-carboxyphenyl)-methyl]-1H-imidazol-5-yl]methylene-2-thiophenepropionic acid monomethanesulfonate]	–	safe and well tolerated	forms a dihydrate	~13
